pIC50: −log10 of the molar value.
Legend:
HPTPβ = HPTPβ (Homo sapiens, UniProt P23467); experiment: HPTPβ inhibition (IC50); type: biochemical
PTP1B = target: T1, PTP1B (Homo sapiens, UniProt P18031); experiment: PTP1B inhibition (IC50); type: biochemical
T1 sequence (P18031 1-435): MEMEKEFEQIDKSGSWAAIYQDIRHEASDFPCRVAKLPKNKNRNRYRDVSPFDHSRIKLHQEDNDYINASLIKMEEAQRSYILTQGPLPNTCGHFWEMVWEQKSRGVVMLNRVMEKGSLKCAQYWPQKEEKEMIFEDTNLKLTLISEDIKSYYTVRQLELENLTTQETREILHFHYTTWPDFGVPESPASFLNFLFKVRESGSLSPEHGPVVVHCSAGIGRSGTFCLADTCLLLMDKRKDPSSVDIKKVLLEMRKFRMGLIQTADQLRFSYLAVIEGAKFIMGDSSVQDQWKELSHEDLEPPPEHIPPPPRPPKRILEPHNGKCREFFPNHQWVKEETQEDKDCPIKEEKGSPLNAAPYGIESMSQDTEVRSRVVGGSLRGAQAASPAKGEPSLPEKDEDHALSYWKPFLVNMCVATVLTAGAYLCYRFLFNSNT

Chain of HPTPβ (P23467 23-1997): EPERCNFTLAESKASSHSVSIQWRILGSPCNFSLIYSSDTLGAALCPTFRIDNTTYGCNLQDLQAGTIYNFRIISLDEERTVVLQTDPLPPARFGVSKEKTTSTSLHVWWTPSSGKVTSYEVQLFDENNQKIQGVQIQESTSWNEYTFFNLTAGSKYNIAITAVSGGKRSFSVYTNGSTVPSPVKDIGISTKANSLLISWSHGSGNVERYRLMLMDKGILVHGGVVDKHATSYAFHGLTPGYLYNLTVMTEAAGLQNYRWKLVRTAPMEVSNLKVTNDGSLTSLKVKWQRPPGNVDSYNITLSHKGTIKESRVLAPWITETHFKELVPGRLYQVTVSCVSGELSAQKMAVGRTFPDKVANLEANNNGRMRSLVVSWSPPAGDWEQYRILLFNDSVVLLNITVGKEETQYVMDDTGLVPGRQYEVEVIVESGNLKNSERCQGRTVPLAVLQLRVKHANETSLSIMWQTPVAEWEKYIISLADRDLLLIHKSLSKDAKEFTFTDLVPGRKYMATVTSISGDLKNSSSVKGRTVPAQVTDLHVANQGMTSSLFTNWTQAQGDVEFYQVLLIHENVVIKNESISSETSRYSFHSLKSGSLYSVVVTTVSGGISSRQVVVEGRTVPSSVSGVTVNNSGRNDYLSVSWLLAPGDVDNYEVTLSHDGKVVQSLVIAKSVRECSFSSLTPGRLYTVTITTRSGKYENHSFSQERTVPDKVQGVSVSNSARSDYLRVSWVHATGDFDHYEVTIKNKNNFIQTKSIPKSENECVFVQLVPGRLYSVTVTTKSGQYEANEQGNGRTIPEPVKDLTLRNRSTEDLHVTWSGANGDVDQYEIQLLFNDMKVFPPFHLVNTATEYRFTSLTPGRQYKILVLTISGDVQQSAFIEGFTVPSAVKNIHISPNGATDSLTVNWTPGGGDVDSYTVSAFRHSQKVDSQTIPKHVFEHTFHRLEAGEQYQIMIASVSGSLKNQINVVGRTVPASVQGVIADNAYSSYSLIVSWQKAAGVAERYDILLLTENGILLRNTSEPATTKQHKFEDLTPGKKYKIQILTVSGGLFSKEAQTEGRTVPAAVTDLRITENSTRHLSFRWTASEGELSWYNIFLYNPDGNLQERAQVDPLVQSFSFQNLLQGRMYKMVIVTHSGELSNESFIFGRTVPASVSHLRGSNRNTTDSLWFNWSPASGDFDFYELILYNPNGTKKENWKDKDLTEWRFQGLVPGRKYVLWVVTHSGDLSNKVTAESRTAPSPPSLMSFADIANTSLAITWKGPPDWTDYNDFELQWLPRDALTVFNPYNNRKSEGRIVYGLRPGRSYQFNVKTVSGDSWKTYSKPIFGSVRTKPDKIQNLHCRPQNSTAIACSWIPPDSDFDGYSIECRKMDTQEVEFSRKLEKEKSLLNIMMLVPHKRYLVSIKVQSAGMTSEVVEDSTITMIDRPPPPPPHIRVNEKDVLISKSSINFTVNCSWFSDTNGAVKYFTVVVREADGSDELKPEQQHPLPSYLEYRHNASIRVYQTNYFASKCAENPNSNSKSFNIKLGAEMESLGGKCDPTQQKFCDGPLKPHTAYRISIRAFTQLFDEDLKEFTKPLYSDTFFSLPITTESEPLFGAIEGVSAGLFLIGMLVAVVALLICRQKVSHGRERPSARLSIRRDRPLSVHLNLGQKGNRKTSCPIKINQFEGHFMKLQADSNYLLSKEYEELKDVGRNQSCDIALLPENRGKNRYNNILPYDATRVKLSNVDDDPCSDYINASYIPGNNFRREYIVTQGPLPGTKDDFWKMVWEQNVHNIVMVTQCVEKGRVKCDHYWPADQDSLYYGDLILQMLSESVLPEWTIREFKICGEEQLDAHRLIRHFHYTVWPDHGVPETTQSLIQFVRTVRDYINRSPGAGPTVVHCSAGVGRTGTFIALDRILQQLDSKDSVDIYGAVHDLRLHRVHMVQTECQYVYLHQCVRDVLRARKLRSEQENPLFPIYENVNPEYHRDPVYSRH

Row | SMILES | pIC50 (HPTPβ) | pIC50 (PTP1B)
1 | COC(=O)N[C@@H](Cc1ccccc1)C(=O)N[C@@H](Cc1ccc(NS(=O)(=O)O)cc1)c1nc(-c2ccsc2)cs1 [4-{(S)-2-[(S)-2-(Methoxycarbonylamino)-3-phenylpropanamido]-2-[4-(thiophen-3-yl)thiazol-2-yl]ethyl}phenylsulfamic acid] | 10.05 | 6.36
2 | CCc1csc([C@H](Cc2ccc(NS(=O)(=O)O)cc2)NC(=O)[C@H](CC(C)C)NC(=O)OC(C)(C)C)n1 [4-{(S)-2-[(S)-2-(tert-Butoxycarbonylamino)-4-methylpentanamido]-2-(4-ethylthiazol-2-yl)ethyl}phenylsulfamic acid] | 9.00 | 6.32
3 | COC(=O)N[C@@H](Cc1ccccc1)C(=O)N[C@@H](Cc1ccc(NS(=O)(=O)O)cc1)c1csc(CS(=O)(=O)c2ccc(Cl)cc2)n1 [4-{(S)-2-{2-[(4-Chlorophenylsulfonyl)methyl]thiazol-4-yl}-2-[(S)-2-(methoxycarbonylamino)-3-phenylpropanamido]ethyl}phenylsulfamic acid] | 10.10 | 5.60
4 | COc1cccc(Cc2csc([C@H](Cc3ccc(NS(=O)(=O)O)cc3)NC(=O)C(C)(C)C)n2)c1 [(S)-4-(2-(4-(3-Methoxybenzyl)thiazol-2-yl)-2-pivalamidoethyl)phenylsulfamic acid] | 6.88 | 4.30
5 | CC(C)(C)C(=O)N[C@@H](Cc1ccc(NS(=O)(=O)O)cc1)c1nc(-c2ccc(-c3ccccc3)cc2)cs1 [(S)-4-(2-(4-(Biphen-4-yl)thiazol-2-yl)-2-pivalamidoethyl)phenylsulfamic acid] | 6.42 | 4.54
6 | CC(C)(C)C(=O)N[C@@H](Cc1ccc(NS(=O)(=O)O)cc1)c1nc(Cc2ccccc2)cs1 [(S)-4-(2-(4-Benzylthiazol-2-yl)-2-pivalamidoethyl)phenylsulfamic acid] | 6.95 | 4.42
7 | CCc1csc([C@H](Cc2ccc(NS(=O)(=O)O)cc2)NC(=O)C(C)(C)C)n1 [(S)-4-(2-(4-Ethylthiazol-2-yl)-2-pivalamidoethyl)phenyl-sulfamic acid] | 7.07 | 3.85
8 | CC(C)(C)C(=O)N[C@@H](Cc1ccc(NS(=O)(=O)O)cc1)c1nc(-c2ccccc2)cs1 [(S)-4-(2-(4-Phenylthiazol-2-yl)-2-pivalamidoethyl)phenylsulfamic acid] | 7.38 | 4.08
9 | Cc1sc([C@H](Cc2ccc(NS(=O)(=O)O)cc2)NC(=O)C(C)(C)C)nc1-c1ccccc1 [(S)-4-(2-(5-Methyl-4-phenylthiazol-2-yl)-2-pivalamidoethyl)phenylsulfamic acid] | 7.01 | 4.30
10 | CC(C)(C)OC(=O)N[C@@H](Cc1ccc(NS(=O)(=O)O)cc1)c1nc(CO)cs1 [(S)-4-(2-(tert-Butoxycarbonylamino)-2-(4-(hydroxymethyl)thiazol-2-yl)ethyl)phenylsulfamic acid] | 6.19 | 4.50
11 | COCc1csc([C@H](Cc2ccc(NS(=O)(=O)O)cc2)NC(=O)OC(C)(C)C)n1 [(S)-4-(2-(tert-Butoxycarbonylamino)-2-(4-(methoxymethyl)thiazol-2-yl)ethyl)-phenyl sulfamic acid] | 6.74 | 4.56
12 | CCCc1csc([C@H](Cc2ccc(NS(=O)(=O)O)cc2)NC(=O)OC(C)(C)C)n1 [(S)-4-(2-(tert-Butoxycarbonylamino)-2-(4-propylthiazol-2-yl)ethyl)phenyl sulfamic acid] | 7.40 | 4.45
13 | CC(C)(C)OC(=O)N[C@@H](Cc1ccc(NS(=O)(=O)O)cc1)c1nc(C(C)(C)C)cs1 [(S)-4-(2-(tert-Butoxycarbonylamino)-2-(4-tert-butylthiazol-2-yl)ethyl)phenyl sulfamic acid] | 7.57 | 4.30
14 | CC(C)(C)OC(=O)N[C@@H](Cc1ccc(NS(=O)(=O)O)cc1)c1ncc(-c2ccccc2)s1 [(S)-4-(2-(tert-Butoxycarbonylamino)-2-(5-phenylthiazol-2-yl)ethyl)-phenyl sulfamic acid] | 6.51 | 4.94
